Assay [1] has as its system metastatic colorectal carcinoma (CRC). The note with it: cited from earlier work.
Assay [2] relates to VDV signature genes in Human Inflammatory Breast Cancer. To be noted: 19 inflammatory breast cancer patients; one dose as single agent; 21 days post-treatment; published micro-array data; cited from earlier work.
In assay [3] the test system is metastatic colorectal carcinoma (CRC). Put plainly: NO16966 first-line metastatic CRC trial, PFS and OS stratified by 22-gene VDV signature. The class given is in vivo, human. The protocol:
Sections from archival tumor samples from patients enrolled in the XELOX treatment arms of NO 16966 were evaluated by a pathologist and high tumor content area macro-dissected for subsequent RNA isolation using the FFPE RNA isolation kit (Roche; 7-10 sections per patient). RNA levels were assessed after cDNA synthesis following standard techniques, with the qPCR protocol on the Fluidigm Biomark platform according to the manufacturer's protocol.
Quantitative histological data from various animal experiments were plotted using Microsoft Excel software. Student's t test was applied to compare data sets of interest and differences with p values <0.05 were considered significant. 103 biopsies out of 1017 patients from the XELOX (capecitabine and oxaliplatin)-containing arm in the NO16966 trial were analyzed for the gene expression of VDV genes. qRT-PCR values were normalized by the housekeeping genes and relative to a universal reference sample to derive delta-delta Ct values. Subsequently, the delta-delta Ct value of each of the 22 VDV genes was mean centered and variance scaled to a Z-score.
For each sample i for which all of the VDV genes were analyzed, a VDV signature score (VDVi) was calculated. The VDVi represents a weighted average of z-scores across the analyzed VDV genes and is given by the algorithm:
wherein Zg,i is the standardized z-score of the qRT-PCR value for gene g of sample i and n, in this instance, is 22. The VDVi value provides quantitative information regarding the extent to which the expression of a particular set of genes is collectively overexpressed or underexpressed relative to a centered mean.
To compare the clinical outcomes (PFS and OS) between marker and/or treatment subgroups, log-rank tests and Cox regression were used, with median time calculated by the Kaplan-Meier analysis. All statistical tests were two-sided.
To test if VDV gene expression could correlate with clinical outcomes, we analyzed VDV gene expression levels in available pre-treatment archival tumor tissue from 103 patients (biomarker evaluable subpopulation) that were enrolled in the XELOX-containing arms. Due to the limited quality and amount of RNA from these clinical samples, gene expression was analyzed in a previously designed and validated “angiogenesis” Fluidigm qRT-PCR chip (FIG. 8B) that included 4 different housekeeping genes (for gene expression normalization), VEGF (as a control), and 22 representative proximal and distal VDV genes comprising: (i) pan-vascular markers such as CD31, CD34, and VE-CADH as indicators of MVD; (ii) key VEGF pathway components and proxVDV genes, including VEGFR-1, VEGFR-2, VEGFR-3, EPHRINB2, NRPs, ESM1, NID2, COL4a2, and LAMA4a; and (iii) additional VDV genes that are components of endothelial signaling pathways and potential modulators of VDV biology, including DLL-4, NOTCH1, ALK1, and EGFL7 (see FIG. 9A for validation of this compacted 22 VDV gene signature).
In these patients, the addition of bevacizumab to chemotherapy provided a statistically significant PFS (HR, 0.59; 95% CI, 0.37 to 0.93; p=0.024) and OS benefit (HR, 0.45; 95% CI, 0.23 to 0.85; p=0.015). […] We then tested the correlation between clinical outcomes and “high” or “low” pre-treatment gene expression. […] In contrast, in “VDV high” patients (FIG. 8D, solid lines), the addition of bevacizumab to chemotherapy vs chemotherapy alone provided a marked and significant PFS(HR, 0.36; 95% CI, 0.17 to 0.77; p=0.0079) and OS (HR, 0.31; 95% CI, 0.11 to 0.93; p=0.036) benefit. […] Thus, in this relatively small 103-patient sample set, the higher expression of a collective VDV gene subset correlates specifically with the improved clinical outcome provided by bevacizumab addition to chemotherapy, and has a predictive effect with respect to PFS.

Setting [4] is: addition to oxaliplatin-based chemotherapy, Saltz et al. 2008.

As to “bevacizumab: recombinant humanized anti-VEGF monoclonal antibody generated according to Presta et al. (1997)”, in assay [1] (setting [4]), the “OS differences (secondary endpoint), whole NO16966 study” value was “did not reach statistical significance”. Moreover, in assay [1] (setting [4]), the “PFS (primary endpoint), whole NO16966 study” value was “significantly improved”. The “PFS and OS in metastatic CRC” value in assay [1] (in combination with chemotherapy, Hurwitz et al. 2004) was “increase progression free survival (PFS) and overall survival (OS)”. For the same substance, the “VDV transcripts post-treatment vs pre-treatment biopsies” value in assay [2] is reported as “clear down regulation of VDV transcripts”. In addition, the “PFS HR” value is recorded as 0.59 in assay [3] (103 biomarker evaluable patients, addition to chemotherapy (XELOX) vs chemotherapy, 95% CI 0.37 to 0.93, p=0.024); 0.36 in assay [3] ("VDV high" patients, addition to chemotherapy vs chemotherapy alone, 95% CI 0.17 to 0.77, p=0.0079); 0.88 in assay [3] ("VDV low" patients, combination with chemotherapy vs chemotherapy alone, 95% CI 0.47 to 1.62, p=0.67). In addition, the “OS HR” value in assay [3] (103 biomarker evaluable patients, addition to chemotherapy (XELOX), 95% CI 0.23 to 0.85, p=0.015) was 0.45; in assay [3] ("VDV high" patients, 95% CI 0.11 to 0.93, p=0.036), 0.31; in assay [3] ("VDV low" patients, 95% CI 0.25 to 1.33, p=0.2) it was 0.58.

The values above are taken from US20130216533A1, “BIOLOGICAL MARKERS FOR IDENTIFYING PATIENTS FOR TREATMENT WITH VEGF ANTAGONISTS” (Genentech, Inc., priority 2012, published 2013).
